The values below come from US20250268919A1, “COMPOUNDS FOR THE TREATMENT OF CANCER” (Amneal Pharmaceuticals LLC, priority 2021, published 2025).

A short description of data set [1]: in vitro. As to conditions: human, Caco-2.
In data set [2] the test system is MCF7 tumor. The data set is described as follows: Anticancer efficacy of compound 121 in nude mice bearing MCF7 tumor. As to conditions: 1 mg/mouse (~33.3 mg/kg) subcutaneously; MCF-7 xenograft mice. The data set is classed as in vivo. As to the method: For this purpose, MCF7 cancer cells were procured from ATCC and grown in DMEM Medium supplemented with 10% FBS and 1% penicillin streptomycin. Cells were harvested when they reach 70-80% confluence for tumor implantation. 24 h prior to MCF7 cells implantation, the skin area around the injection site of nude mice were disinfected by mildly swabbing with surgical spirit. […] pellet (0.18 mg/pellet 60-day release, Innovative Research of America) was subcutaneously implanted into in the left flank region of the animals. For cell inoculation, cells were mixed with equal volume of Matrigel in a 1:1 ratio followed by injection of 5×10^6 MCF7 cells subcutaneously on the right flank region using a 1 mL syringe attached to a 24 G needle. On the subsequent days the injection site was monitored for tumor palpability. Tumor grafts were measured within 7-8 days of cell inoculation for tumor palpability. […]
After randomization, treatment was initiated when the average tumor volume reaches −200±50 mm^3. Tumor volume and mouse body weight were measured on the first day of treatment (Day 1) and then three times per week till 28 days as shown in FIG. 4. […]
Tumor volume (mm^3) was calculated using the formula, tumor length×(tumor width)2/2. Tumor growth inhibition will be calculated after normalizing the values to that on day 1. % TGI was calculated based on the formula below.

Data set [3] can be described thus: Pharmacokinetic study in monkey, single oral dose. The data set is classed as in vivo. As to conditions: 50 mg/kg single oral; Cynomolgus monkey; plasma. As to the method:
The objective of the study was to evaluate pharmacokinetic exposure of compound 121 after per oral dosing at 25 mg/kg dose and Fulvestrant after per oral dosing at 50 mg/kg dose in Cynomolgus monkey. The study was performed in overnight fasted Cynomolgus monkeys.
Blood samples were collected at each time points like 0 h (pre-dose) and 0.25, 0.5, 1, 2, 4, 8, 12, 24, 36 and 48 h post-dose via the cephalic or saphenous veins into polyethylene microcentrifuge tubes containing potassium (K2) EDTA. There were total 11 time points, n=1 monkey. All blood samples were mixed well by inversion and placed on wet ice until processed for plasma. Blood samples were centrifuged at 2˜8° C. for 10 min at 3000 g to collect plasma. Plasma samples of approximately […] at each time point were used for the bioanalysis. The plasma samples were stored frozen in a freezer set to maintain −60° C. to −70° C. until LC/MS/MS analysis.
Bioanalysis was performed using fit-for-purpose LC-MS/MS method for the quantification of compound 121 or Fulvestrant in plasma samples. The calibration curve was prepared in stabilized blank monkey plasma over 1-1000 ng/mL range for compound 121 and 1-3000 ng/mL range for Fulvestrant. Samples were cleaned up using the protein precipitation technique and analysed by LC-MS/MS.
The plasma pharmacokinetic parameters were calculated using standard non-compartmental analysis (using linear trapezoidal method with linear interpolation.)

Data set [4] can be described thus: in vitro. As to conditions: human, microsomes, pH 7.4. The procedure: The assay was performed in duplicate.
Supernatant (200 μL) from each reaction tube was taken for LC-MS/MS analysis.

The subject of data set [5] is CACO-2 cell line. As to conditions: standard compounds at 5 μM; apical to basolateral.

The term efflux ratio denotes the permeability from basolateral to apical divided by that in the opposite direction, in the common usage. With `C[C@H]1O[C@@H](O[C@H]2[C@@H](O)C[C@H](O[C@H]3[C@@H](O)C[C@H](O[C@H]4CC[C@@]5(C)[C@H](CC[C@@H]6[C@@H]5C[C@@H](O)[C@]5(C)[C@@H](C7=CC(=O)OC7)CC[C@]65O)C4)O[C@@H]3C)O[C@@H]2C)C[C@H](O)[C@@H]1O` [Digoxin], in data set [1], the efflux ratio at 5 μM stood at 19.7.
`C[C@]12CC[C@@H]3c4ccc(O)cc4C[C@@H](CCCCCCCCC[S+]([O-])CCCC(F)(F)C(F)(F)F)[C@H]3[C@@H]1CC[C@@H]2O` (stereo partly drawn) [Fulvestrant]: the “% Tumor Growth Inhibition (% TGI) on day 28” value in data set [2] was found to be 101%. In data set [3], the “AUC % Extrap” value was “Inestimable”, the AUC_0-t result is on record as “Inestimable”, the “AUC_0-∞” value is “Inestimable” and the Cmax entry is reported as “Inestimable”. Further, the Tmax result in data set [3] is given as “Inestimable”.
What is called half-life is the time in which the quantity being followed falls by half. A high value points to slow loss. Turning to `CC(=O)N1CCN(c2ccc(OCC3COC(Cn4ccnc4)(c4ccc(Cl)cc4Cl)O3)cc2)CC1` (stereo not drawn) [Ketoconazole], in data set [4], the half-life was > 2 h.
For `CC(C)NCC(O)COc1cccc2ccccc12` (stereo not drawn) [Propranolol], in data set [5], the A-B permeability was 62.15 ×10⁻⁶ cm/s.
